This experiment deals with Pyrenophora teres. The experiment can be described thus: In vivo test on Pyrenophora teres (barley net blotch). Particulars: 500 ppm, preventive spray on barley plants (Express), grading 12 days after contamination vs control plants. As to the method:
The active ingredients tested are prepared by homogenisation in a mixture of acetone/tween/DMSO, then diluted with water to obtain the desired active material concentration.
Barley plants (Express variety), sown on a 50/50 peat soil-pozzolana substrate in starter cups and grown at 12° C., are treated at the 1-leaf stage (10 cm tall) by spraying with the active ingredient prepared as described above. Plants, used as controls, are treated with the mixture of acetone/tween/DMSO/water not containing the active material.
After 24 hours, the plants are contaminated by spraying them with an aqueous suspension of Pyrenophora teres spores (12,000 spores per ml). The spores are collected from a 12-day-old culture. The contaminated barley plants are incubated for 24 hours at about 20° C. and at 100% relative humidity, and then for 12 days at 80% relative humidity.
Grading is carried out 12 days after the contamination, in comparison with the control plants.

For `CC(Cc1ccc(Cl)cc1)NC(=O)c1ccccc1C(F)(F)F` (stereo not shown) [Compound 1], the protection entry is listed as “at least 70%”.

The values are drawn from patent publication US8314269B2, “N-(1-methyl-2phenylethyl)benzamide derivatives” (Bayer Cropscience AG, priority 2005, dated 2012).
